Laboratory results as given in paper PMC11679793, “Structure-Activity Relationship Study of Majusculamide D: Overcoming Metabolic Instability and Severe Toxicity with a Fluoro Analogue” (Marine Drugs, 2024).
Converted amounts (≈) assume the structure as drawn. Like-named read-outs stand apart in the source and are kept apart here.

How the values were obtained:
PANC-1 cells = experiment: MTT cell activity assay (inhibitory activity against PANC-1 cells); type: cell-based
Procedure: A total of 3000 PANC-1 cells were resuspended in 200 μL of culture medium and seeded into 96-well plates. After 24 h, the cells were treated with the compound and incubated for an additional 72 h. Following the incubation, 20 μL of 5 mg/mL MTT solution (Solarbio, China) was added to each well in the dark, and the cells were incubated for another 4 h. After incubation, the culture medium was discarded, and the wells were washed with PBS to remove any residual medium. Then, 200 μL of DMSO was added to each well to fully dissolve the formazan crystals, and the solution was mixed thoroughly. The absorbance was measured at 492 nm/570 nm, and the data were analyzed using GraphPad Prism.

[1] = Preliminary water solubility test; type: physicochemical; settings: thermodynamic from solid, 25 °C, ultrasonic treatment 30 min, visual
PANC-1 xenograft tumor = tested on: PANC-1 xenograft tumor
Procedure: Furthermore, a xenografted murine subcutaneous tumor model was employed to evaluate the effects of majusculamide D and the optimized analogues 1c and 1n (Figure 1B). PANC1-bearing BALB/c nude mice were separated randomly, with a total of six mice in each group. Gemcitabine was chosen as the positive drug; the mice were then administered intravenous doses of 1c (5 mg/kg), 1n (5 mg/kg), 1a (5 mg/kg), and gemcitabine (20 mg/kg) every other day for 24 days.
A total of 4 × 10^6 PANC-1 cells suspended in 100 μL PBS were subcutaneously injected into the right shoulder region of BALB/c nude mice. When the tumor volume reached approximately 200 mm^3, the mice were euthanized, and the tumor tissues were harvested and designated as F1 generation. Tumor tissues were then cut into small cubes measuring approximately 3 × 3 × 3 mm, which were implanted into new BALB/c mice to propagate the tumors. This procedure was repeated to obtain the F2 generation of tumors. Finally, mice bearing F3 generation transplant tumors were used for drug treatment experiments. When the tumor volume reached approximately 80–100 mm^3, the mice were randomly divided into five groups (n = 6): control group, 5 mg/kg compound 1a group, 5 mg/kg compound 1c group, 5 mg/kg compound 1n group, and 20 mg/kg gemcitabine group. The compounds 1a, 1c, and 1n were dissolved in DMSO and then diluted with 0.9% physiological saline to achieve a final concentration of 0.5 mg/mL as the dosing concentration. Gemcitabine was dissolved directly in 0.9% saline to achieve a final concentration of 2 mg/mL as the dosing concentration. The compounds were administered intravenously every two days, alternating between the left and right tail veins to minimize vein damage. Injections were performed using ultra-fine syringes (30G needles) to reduce stress and ensure consistent delivery. The body weight and tumor volume of the mice were measured every four days. On day 24, the mice were euthanized, and the tumor weights were recorded. Tumor volume (V) was calculated using the formula: V = (ab^2)/2, with “a” representing the long diameter of the tumor and “b” representing the short diameter of the tumor. […] Tumor weight was used to calculate the tumor inhibition rate (Figure 1G).

[2] = Homo sapiens, PANC-1, 72 h, read-out: IC50 (nM), inhibitory activity against PANC-1 cells (Table 1), PANC-1 cells, 72 h incubation, mean ± SD, n = 3
[3] = Homo sapiens, PANC-1 cells, 72 h incubation, mean ± SD, n = 3, Table 2 series, read-out: IC50 (nM), inhibitory activity against PANC-1 cells (Table 2)
[4] = read-out: IC50 (nM), inhibitory activity against PANC-1 cells (Table 1), PANC-1 cells, 72 h incubation, mean ± SD, n = 3
[5] = Homo sapiens, PANC-1 cells, 72 h incubation, mean ± SD, n = 3, read-out: IC50 (nM), inhibitory activity against PANC-1 cells (Table 1)

| SMILES | IC50 (PANC-1 cells; [2]) [nM] | solubility [1] [µg/mL] | IC50 (PANC-1 cells; [3]) [nM] | also measured |
| --- | --- | --- | --- | --- |
| CCCCC(C)CC(C)C(=O)N(C)C(Cc1ccc(OC)cc1)C(=O)NC(C(=O)N(C)C(C(=O)N1CC(F)CC1C(=O)N1C(=O)C=CC1C)C(C)C)C(C)OC(C)=O (stereo not drawn) [Compound 1k] | 2.55 ± 0.55 | – | – | – |
| CCCCC(C)CC(C)C(=O)N(C)C(Cc1ccccc1)C(=O)NC(C(=O)N(C)C(C(=O)N1CC(O)CC1C(=O)N1C(=O)C=CC1C)C(C)C)C(C)OC(C)=O (stereo not drawn) [Compound 1h] | 72 ± 21.9 | – | – | – |
| CCCC[C@@H](C)C[C@@H](C)C(=O)N(C)[C@@H](Cc1ccc(OC)cc1)C(=O)N[C@H](C(=O)N(C)[C@H](C(=O)N1C[C@@H](O)C[C@H]1C(=O)N1C(=O)C=C[C@@H]1C)C(C)C)[C@@H](C)NC(=O)CNC [Compound 16d] | – | 810 (≈ 964 µM) | 16.2 ± 6.72 | – |
| CCCC[C@@H](C)C[C@@H](C)C(=O)N(C)[C@@H](Cc1ccc(OC)cc1)C(=O)N[C@H](C(=O)N(C)[C@H](C(=O)N1C[C@@H](O)C[C@H]1C(=O)N1C(=O)C=C[C@@H]1C)C(C)C)[C@@H](C)NC(=O)[C@@H]1CCCN1 [Compound 16a] | – | 210 (≈ 242 µM) | 40.8 ± 14.1 | – |
| CCCCC(C)CC(C)C(=O)N(C)C(Cc1ccc(OC)cc1)C(=O)NC(C(=O)N(C)C(C(=O)N1CC(O)CC1C(=O)N1C(=O)C=CC1C)C(C)C)C(C)O (stereo not drawn) [Compound 14a] | 1160 ± 195 | – | – | – |
| CCCCC(C)CC(C)C(=O)N(C)C(Cc1ccc(OC)cc1)C(=O)NC(C(=O)N(C)C(C(=O)N1CC(O)CC1C(=O)N1C(=O)C=CC1C)C(C)C)C(C)OC(C)=O (stereo not drawn) [Compound 1m] | – | – | – | IC50 (PANC-1 cells; [4]): 4.68 ± 0.59 nM |
| CCCC[C@@H](C)C[C@@H](C)C(=O)N(C)[C@@H](Cc1ccc(OC)cc1)C(=O)N[C@H](C(=O)N(C)[C@H](C(=O)N1C[C@@H](O)C[C@H]1C(=O)N1C(=O)C=C[C@@H]1C)C(C)C)[C@@H](C)NC(=O)[C@@H](N)Cc1ccc(O)cc1 [Compound 16m] | – | 160 (≈ 172 µM) | 278 ± 14.9 | – |
| CCCC[C@@H](C)C[C@@H](C)C(=O)N(C)[C@@H](Cc1ccc(OC)cc1)C(=O)N[C@H](C(=O)N(C)[C@H](C(=O)N1C[C@@H](O)C[C@H]1C(=O)N1C(=O)C=C[C@@H]1C)C(C)C)[C@@H](C)NC(=O)C1CCC(=O)N1 (stereo partly drawn) [Compound 16k] | – | 330 (≈ 375 µM) | 472 ± 69.7 | – |
| CCCCC(C)CC(C)C(=O)N(C)C(Cc1ccc(OC)cc1)C(=O)NC(C(=O)N(C)C(C(=O)N1CC(O)CC1C(=O)N1C(=O)C=CC1C)C(C)C)C(C)NC(=S)NC (stereo not drawn) [Compound 14b] | – | – | – | IC50 (PANC-1 cells; [5]): 1.06 ± 0.35 nM |
| CCCC[C@@H](C)C[C@@H](C)C(=O)N(C)[C@@H](Cc1ccc(OC)cc1)C(=O)N[C@H](C(=O)N(C)[C@H](C(=O)N1C[C@@H](O)C[C@H]1C(=O)N1C(=O)C=C[C@@H]1C)C(C)C)[C@@H](C)NC(=O)[C@@H](N)Cc1c[nH]c2ccccc12 [Compound 16c] | – | 200 (≈ 209 µM) | 34.4 ± 4.5 | – |
| CCCCC(C)CC(C)C(=O)N(C)C(Cc1ccc(O)cc1)C(=O)NC(C(=O)N(C)C(C(=O)N1CC(O)CC1C(=O)N1C(=O)C=CC1C)C(C)C)C(C)OC(C)=O (stereo not drawn) [Compound 14c] | 5.31 ± 1.46 | – | – | – |
| CCCCC(C)CC(C)C(=O)N(C)C(Cc1ccc(OC)cc1)C(=O)NC(C(=O)N(C)C(C(=O)N1CC(O)CC1C(=O)N1C(=O)C=CC1C)C(C)C)C(C)NC(C)=O (stereo not drawn) [Compound 1e] | – | – | – | IC50 (PANC-1 cells; [5]): 2.94 ± 0.93 nM |
| CCCCC(C)CC(C)C(=O)N(C)C(Cc1ccc(-c2ccccc2)cc1)C(=O)NC(C(=O)N(C)C(C(=O)N1CC(O)CC1C(=O)N1C(=O)C=CC1C)C(C)C)C(C)OC(C)=O (stereo not drawn) [Compound 1j] | < 1 | – | – | IC50 (PANC-1 cells; [4]): 0.7 ± 0.07 nM |
| CCCCC(C)CC(C)C(=O)N(C)C(Cc1ccc(OC)cc1)C(=O)NC(COC(C)=O)C(=O)N(C)C(C(=O)N1CC(O)CC1C(=O)N1C(=O)C=CC1C)C(C)C (stereo not drawn) [Compound 1d] | 2.15 ± 0.37 | – | – | – |
| CCCCC(C)CC(C)C(=O)N(C)C(Cc1ccc(OC)cc1)C(=O)NC(C(=O)N(C)C(C(=O)N1CC(O)CC1C(=O)N1CC=CC1=O)C(C)C)C(C)OC(C)=O (stereo not drawn) [Compound 1l] | 134 ± 78.2 | – | – | – |
| Nc1ccn([C@@H]2O[C@H](CO)[C@@H](O)C2(F)F)c(=O)n1 [Gemcitabine, reference compound] | – | – | – | tumor inhibition rate (%) (PANC-1 xenograft tumor; calculated from tumor weight, day 24, 1a, 1c, 1n 5 mg/kg, gemcitabine 20 mg/kg i.v.): 51.0%; tumor weight (PANC-1 xenograft tumor; day 24, i.v. every other day, 1a, 1n 5 mg/kg, gemcitabine 20 mg/kg, mean ± SD): 0.548 ± 0.153 g; tumor volume (PANC-1 xenograft tumor; mouse, in vivo): 561.1 ± 177.3 mm^3 |
